Test results as given in PubChem BioAssay AID180 (DTP/NCI, 2004).
Values joined by “and” are separate entries in the source; they are usually repeats but may differ in a detail not shown here. Equal entries are not always repeated.

Tested on: BDF1 mice, Adenocarcinoma 755 s.c., tumor weight T/C
Test: NCI In Vivo Anticancer Drug Screen. Data for tumor model Adenocarcinoma 755 (subcutaneous) in B6D2F1 (BDF1) mice
Settings: endpoint: mean tumor weight, higher = larger tumour
Procedure, shortened: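 Tumor-bearing mice receive test compound while controls get vehicle alone. Antitumor effect is scored from survival or tumor dimensions as a T/C quotient.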

[1] = dose: 0.5 mg/kg/injection, schedule: Q01DX011 (ip), vehicle: carboxymethylcellulose (CMC)
[2] = dose: 25.0 mg/kg/injection, schedule: Q01DX011 (ip), vehicle: methylcellulose (MC)

Q: With CCOC(=O)C(N)Cc1ccc(N(CCCl)CCCl)cc1 (stereo unspecified) as the molecule, how does the T/C [1] read?
A: 92 % of control

Q: And the T/C (dose: 0.5 mg/kg/injection, schedule: Q01DX011 (ip), vehicle: saline)?
A: 82 % of control

Q: What about the T/C (dose: 1.1 mg/kg/injection, schedule: Q01DX011 (ip), vehicle: carboxymethylcellulose (CMC)) of the same molecule?
A: 77 % of control

Q: What about the T/C (dose: 1.1 mg/kg/injection, schedule: Q01DX011 (ip), vehicle: saline) of the same molecule?
A: 40 % of control

Q: And the T/C (dose: 2.2 mg/kg/injection, schedule: Q01DX011 (ip), vehicle: carboxymethylcellulose (CMC))?
A: 91 % of control

Q: What about the T/C (dose: 2.2 mg/kg/injection, schedule: Q01DX011 (ip), vehicle: saline) of the same molecule?
A: 9 % of control

Q: And the T/C (dose: 4.5 mg/kg/injection, schedule: Q01DX011 (ip), vehicle: carboxymethylcellulose (CMC))?
A: 78 % of control

Q: And the T/C (dose: 4.5 mg/kg/injection, schedule: Q01DX011 (ip), vehicle: saline)?
A: 1 % of control

Q: What about the T/C (dose: 9.0 mg/kg/injection, schedule: Q01DX011 (ip), vehicle: carboxymethylcellulose (CMC)) of the same molecule?
A: 69 % of control

Q: For Cn1c(=O)c2[nH]c(N/N=C/c3ccc(F)cc3)nc2n(C)c1=O, which T/C (dose: 30.0 mg/kg/injection, schedule: Q01DX011 (ip), vehicle: carboxymethylcellulose (CMC)) is on record?
A: 93 % of control

Q: What about the T/C (dose: 60.0 mg/kg/injection, schedule: Q01DX011 (ip), vehicle: carboxymethylcellulose (CMC)) of the same molecule?
A: 91 % of control

Q: And the T/C (dose: 120.0 mg/kg/injection, schedule: Q01DX011 (ip), vehicle: carboxymethylcellulose (CMC))?
A: 114 % of control

Q: CC(=O)OCC(=O)[C@@]1(O)CC[C@H]2[C@@H]3C[C@H](C)C4=CC(=O)C=C[C@]4(C)[C@@]3(F)[C@@H](O)C[C@@]21C was tested. Which T/C (dose: 0.06 mg/kg/injection, schedule: Q01DX011 (sc), vehicle: steriod suspending solution) did it give?
A: 101 % of control

Q: And the T/C (dose: 0.13 mg/kg/injection, schedule: Q01DX011 (sc), vehicle: steriod suspending solution)?
A: 87 % of control

Q: And the T/C (dose: 4.0 mg/kg/injection, schedule: Q01DX011 (sc), vehicle: steriod suspending solution)?
A: 49 % of control

Q: What about the T/C (dose: 5.0 mg/kg/injection, schedule: Q01DX011 (sc), vehicle: steriod suspending solution) of the same molecule?
A: 48 % of control

Q: And the T/C (dose: 9.0 mg/kg/injection, schedule: Q01DX011 (sc), vehicle: steriod suspending solution)?
A: 37 % of control

Q: And the T/C (dose: 10.0 mg/kg/injection, schedule: Q01DX011 (sc), vehicle: steriod suspending solution)?
A: 34 % of control

Q: What about the T/C (dose: 18.0 mg/kg/injection, schedule: Q01DX011 (sc), vehicle: steriod suspending solution) of the same molecule?
A: 37 % of control and 51 % of control

Q: And the T/C (dose: 20.0 mg/kg/injection, schedule: Q01DX011 (sc), vehicle: steriod suspending solution)?
A: 21 % of control

Q: And the T/C (dose: 37.0 mg/kg/injection, schedule: Q01DX011 (sc), vehicle: steriod suspending solution)?
A: 13 % of control and 22 % of control

Q: And the T/C (dose: 75.0 mg/kg/injection, schedule: Q01DX011 (sc), vehicle: steriod suspending solution)?
A: 15 % of control

Q: For O=P1(N(CCCl)CCCl)NCCCO1 (stereo unspecified), which T/C (dose: 6.25 mg/kg/injection, schedule: Q01DX011 (ip), vehicle: saline) is on record?
A: 87 % of control

Q: What about the T/C (dose: 7.13 mg/kg/injection, schedule: Q01DX011 (ip), vehicle: carboxymethylcellulose (CMC)) of the same molecule?
A: 59 % of control

Q: What about the T/C (dose: 7.66 mg/kg/injection, schedule: Q01DX011 (ip), vehicle: carboxymethylcellulose (CMC)) of the same molecule?
A: 92 % of control

Q: And the T/C (dose: 10.22 mg/kg/injection, schedule: Q01DX011 (ip), vehicle: carboxymethylcellulose (CMC))?
A: 92 % of control

Q: And the T/C (dose: 11.4 mg/kg/injection, schedule: Q01DX011 (ip), vehicle: carboxymethylcellulose (CMC))?
A: 46 % of control

Q: And the T/C (dose: 12.25 mg/kg/injection, schedule: Q01DX011 (ip), vehicle: carboxymethylcellulose (CMC))?
A: 52 % of control

Q: What about the T/C (dose: 12.5 mg/kg/injection, schedule: Q01DX011 (ip), vehicle: carboxymethylcellulose (CMC)) of the same molecule?
A: 57 % of control

Q: And the T/C (dose: 12.5 mg/kg/injection, schedule: Q01DX011 (ip), vehicle: saline)?
A: 36 % of control and 60 % of control

Q: What about the T/C (dose: 14.25 mg/kg/injection, schedule: Q01DX011 (ip), vehicle: carboxymethylcellulose (CMC)) of the same molecule?
A: 22 % of control and 29 % of control

Q: And the T/C (dose: 19.0 mg/kg/injection, schedule: Q01DX011 (ip), vehicle: carboxymethylcellulose (CMC))?
A: 22 % of control

Q: And the T/C (dose: 20.43 mg/kg/injection, schedule: Q01DX011 (ip), vehicle: carboxymethylcellulose (CMC))?
A: 66 % of control

Q: And the T/C (dose: 25.0 mg/kg/injection, schedule: Q01DX011 (ip), vehicle: carboxymethylcellulose (CMC))?
A: 8 % of control

Q: And the T/C (dose: 25.0 mg/kg/injection, schedule: Q01DX011 (ip), vehicle: saline)?
A: 30 % of control and 55 % of control

Q: And the T/C (dose: 28.5 mg/kg/injection, schedule: Q01DX011 (ip), vehicle: carboxymethylcellulose (CMC))?
A: 4 % of control and 15 % of control

Q: What about the T/C (dose: 30.65 mg/kg/injection, schedule: Q01DX011 (ip), vehicle: carboxymethylcellulose (CMC)) of the same molecule?
A: 6 % of control and 29 % of control

Q: What about the T/C (dose: 50.0 mg/kg/injection, schedule: Q01DX011 (ip), vehicle: saline) of the same molecule?
A: 8 % of control and 17 % of control

Q: What about the T/C (dose: 57.0 mg/kg/injection, schedule: Q01DX011 (ip), vehicle: carboxymethylcellulose (CMC)) of the same molecule?
A: 3 % of control

Q: What about the T/C (dose: 61.3 mg/kg/injection, schedule: Q01DX011 (ip), vehicle: carboxymethylcellulose (CMC)) of the same molecule?
A: 5 % of control

Q: For CCNc1nncs1, which T/C (dose: 8.63 mg/kg/injection, schedule: Q01DX011 (ip), vehicle: carboxymethylcellulose (CMC)) is on record?
A: 65 % of control

Q: What about the T/C (dose: 14.22 mg/kg/injection, schedule: Q01DX011 (ip), vehicle: carboxymethylcellulose (CMC)) of the same molecule?
A: 73 % of control

Q: What about the T/C (dose: 17.25 mg/kg/injection, schedule: Q01DX011 (ip), vehicle: carboxymethylcellulose (CMC)) of the same molecule?
A: 77 % of control

Q: And the T/C (dose: 28.45 mg/kg/injection, schedule: Q01DX011 (ip), vehicle: carboxymethylcellulose (CMC))?
A: 84 % of control

Q: And the T/C (dose: 31.25 mg/kg/injection, schedule: Q01DX011 (ip), vehicle: methylcellulose (MC))?
A: 62 % of control

Q: And the T/C (dose: 34.5 mg/kg/injection, schedule: Q01DX011 (ip), vehicle: carboxymethylcellulose (CMC))?
A: 101 % of control

Q: And the T/C (dose: 56.9 mg/kg/injection, schedule: Q01DX011 (ip), vehicle: carboxymethylcellulose (CMC))?
A: 89 % of control and 80 % of control and 84 % of control

Q: And the T/C (dose: 62.5 mg/kg/injection, schedule: Q01DX011 (ip), vehicle: methylcellulose (MC))?
A: 49 % of control

Q: What about the T/C (dose: 69.0 mg/kg/injection, schedule: Q01DX011 (ip), vehicle: carboxymethylcellulose (CMC)) of the same molecule?
A: 103 % of control

Q: What about the T/C (dose: 75.8 mg/kg/injection, schedule: Q01DX011 (ip), vehicle: carboxymethylcellulose (CMC)) of the same molecule?
A: 58 % of control and 75 % of control

Q: And the T/C (dose: 125.0 mg/kg/injection, schedule: Q01DX011 (ip), vehicle: methylcellulose (MC))?
A: 6 % of control

Q: With O=C(O)CCC(=O)NO as the molecule, how does the T/C (dose: 50.0 mg/kg/injection, schedule: Q01DX011 (ip), vehicle: carboxymethylcellulose (CMC)) read?
A: 96 % of control

Q: And the T/C (dose: 100.0 mg/kg/injection, schedule: Q01DX011 (ip), vehicle: carboxymethylcellulose (CMC))?
A: 98 % of control

Q: What about the T/C (dose: 200.0 mg/kg/injection, schedule: Q01DX011 (ip), vehicle: carboxymethylcellulose (CMC)) of the same molecule?
A: 84 % of control

Q: Cc1ccc2ccccc2c1CSc1nc(N)nc2c1ncn2CC(C)C was tested. Which T/C [2] did it give?
A: 115 % of control

Q: What about the T/C (dose: 75.0 mg/kg/injection, schedule: Q01DX011 (ip), vehicle: methylcellulose (MC)) of the same molecule?
A: 80 % of control

Q: And the T/C (dose: 225.0 mg/kg/injection, schedule: Q01DX011 (ip), vehicle: methylcellulose (MC))?
A: 97 % of control

Q: What does the source list for C[C@H](CCC(=O)O)[C@H]1CC[C@H]2[C@@H]3[C@H](O)C[C@@H]4C[C@H](O)CC[C@]4(C)[C@H]3C[C@H](O)[C@]12C (tested in a mixture with another compound)?
A: T/C (dose: 80.0 mg/kg/injection, schedule: Q01DX011 (ip), vehicle: methylcellulose (MC)): 31 % of control and 53 % of control; T/C (dose: 160.0 mg/kg/injection, schedule: Q01DX011 (ip), vehicle: methylcellulose (MC)): 76 % of control; T/C (dose: 320.0 mg/kg/injection, schedule: Q01DX011 (ip), vehicle: methylcellulose (MC)): 36 % of control

Q: Which T/C (dose: 400.0 mg/kg/injection, schedule: Q01DX011 (ip), vehicle: other) does the source give for Cc1n[nH]c(=O)[nH]c1=O here?
A: 59 % of control

Q: And the T/C (dose: 800.0 mg/kg/injection, schedule: Q01DX011 (ip), vehicle: other)?
A: 72 % of control

Q: How did the T/C (dose: 0.2 mg/kg/injection, schedule: Q01DX011 (ip), vehicle: methylcellulose (MC)) turn out when CC(C)Cn1cnc2c(Sc3c([N+](=O)[O-])ncn3C)nc(N)nc21 was run?
A: 71 % of control

Q: And the T/C (dose: 0.39 mg/kg/injection, schedule: Q01DX011 (ip), vehicle: methylcellulose (MC))?
A: 70 % of control

Q: And the T/C (dose: 0.78 mg/kg/injection, schedule: Q01DX011 (ip), vehicle: methylcellulose (MC))?
A: 68 % of control

Q: What about the T/C (dose: 3.12 mg/kg/injection, schedule: Q01DX011 (ip), vehicle: methylcellulose (MC)) of the same molecule?
A: 48 % of control

Q: And the T/C (dose: 6.25 mg/kg/injection, schedule: Q01DX011 (ip), vehicle: methylcellulose (MC))?
A: 22 % of control

Q: What about the T/C (dose: 12.5 mg/kg/injection, schedule: Q01DX011 (ip), vehicle: methylcellulose (MC)) of the same molecule?
A: 7 % of control

Q: And the T/C [2]?
A: 2 % of control

Q: Which results are given for NC(=O)c1cn(C2OC(CO)C(O)C2O)c2ncnc(N)c12 (stereo unspecified)?
A: T/C (dose: 0.12 mg/kg/injection, schedule: Q01DX011 (ip), vehicle: carboxymethylcellulose (CMC)): 71 % of control; T/C (dose: 0.25 mg/kg/injection, schedule: Q01DX011 (ip), vehicle: carboxymethylcellulose (CMC)): 54 % of control; T/C [1]: 51 % of control

Q: S=c1nc[nH]c2c1ncn2C1CCCCO1 (stereo unspecified) was tested. Which T/C (dose: 5.0 mg/kg/injection, schedule: Q01DX011 (ip), vehicle: carboxymethylcellulose (CMC)) did it give?
A: 29 % of control

Q: What about the T/C (dose: 10.0 mg/kg/injection, schedule: Q01DX011 (ip), vehicle: carboxymethylcellulose (CMC)) of the same molecule?
A: 16 % of control

Q: How did the T/C (dose: 50.0 mg/kg/injection, schedule: Q01DX011 (ip), vehicle: water) turn out when CNC(=O)NO was run?
A: 65 % of control

Q: And the T/C (dose: 100.0 mg/kg/injection, schedule: Q01DX011 (ip), vehicle: water)?
A: 43 % of control
